Assays:
IL-17AA and IL-17RA = target: T1, IL-17AA and IL-17RA (Homo sapiens, UniProt Q16552); assay: Competitive inhibition of human IL-17AA and IL-17RA binding (HTRF); settings: recombinant IL-17AA (His-tag) and IL-17RA (hFc-tag); read-out: IC50 for Inhibiting IL-AA/IL-RA Binding
T1 construct: purchased Sino Biological 12047-H07B (IL-17AA); 10895-H02H (IL-17RA)
T1 sequence (Q16552 24-155): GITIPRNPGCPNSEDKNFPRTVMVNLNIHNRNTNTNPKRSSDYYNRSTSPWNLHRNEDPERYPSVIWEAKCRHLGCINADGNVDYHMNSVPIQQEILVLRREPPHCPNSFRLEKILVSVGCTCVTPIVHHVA
Protocol: Example 42. Competitive Inhibition of Human IL-17AA and IL-17RA Binding
Recombinant IL-17AA (His-tag, Catalog Number 12047-H07B) and IL-17RA (hFc-tag, Catalog Number 10895-H02H) were purchased from Sino Biological. In the experiment, 10 μL of IL-17AA (1 nM) or IL-17RA (1 nM) was added to 10 μL of anti-6His-Tb (0.4 nM, Revvity, Catalog Number 61HISTLF) or anti-human IgG-d2 (1 μg/mL, anti-human IgG-d2, Revvity, Catalog Number 61HFCDAF), respectively and incubated at room temperature for 1 hour. Compounds were serially diluted starting from 10 μM. 5 μL of each compound solution was incubated with 5 μL of a mixture of IL-17AA and anti-6His-Tb at room temperature for 2 hours. After pre-incubation, to which was added 10 μL of a mixture of IL-17RA and anti-human IgG-d2, and incubation was continued for additional 20 minutes. Subsequently, a microplate reader (Envision, PerkinElmer) was used to detect fluorescence intensity at 615 nm and 665 nm, and the ratio of intensity thereof indicates the degree of IL-17AA and IL-17RA interaction. The ratio of intensity in the absence of tested compound was the highest value of binding between IL-17AA and IL-17RA, and the ratio of intensity in the absence of IL-17AA was the lowest value.
(§1) Therefore, the percentage of inhibition of tested compound was calculated as
Experimental results were analyzed using XLfit (IDBS) for 4-parameter nonlinear fitting analysis, to provide the IC50 value for each tested compound (Table 1).

[1] = tested on: IL-17AA-induced IL-17 signaling pathway; assay: Inhibition of IL-17AA-induced IL-17 signaling pathway in HEK-Blue IL-17 reporter cells (SEAP); format: cell-based; settings: Homo sapiens; HEK-Blue IL-17 cells, IL-17AA 2.5 ng/mL, 20 hours; read-out: IC50 for Inhibiting IL-AA Signaling
Excerpt: Example 43. Inhibition of IL-17AA-Induced IL-17 Signaling Pathway
(§2) Interleukin-17 (IL-17) reporter cell line (HEK-Blue IL-17, InvivoGen, Catalog Number hkb-i117) is created by genetically engineering human IL-17RA/IL-17RC heterodimeric receptor and downstream adapter protein ACT1 into human embryonic kidney 293 cells (HEK293). These cells also express secreted embryonic alkaline phosphatase (SEAP) reporter gene induced by NF-κB and AP-1. Therefore, IL-17AA can activate NF-κB and AP-1 signaling pathways inside the cells by binding to IL-17RA/RC on cell membrane, leading to expression of SEAP protein. After a colorimetric reaction between SEAP protein and Quanti-Blue solution, the absorbance at 620 nm is measured using a microplate reader (BioTek H1M, Agilent, Catalog Number SH1M-SN) to determine IL-17AA-activated signaling pathway.
(§3) In the experiment, HEK-Blue IL-17 cells were cultured at 37° C. under 5% CO2 conditions using the recommended medium from InvivoGen's instruction. Compounds were serially diluted starting from 10 μM. 4 μL of each compound solution was added to 32 μL of cells (10,000 cells) at 37° C. for 1 hour. After pre-incubation, 4 μL of IL-17AA with a final concentration of 2.5 ng/mL (Sino Biological, Catalog Number 12047-HNAS) was added to the cells, and incubation was continued for additional 20 hours. After incubation, 5 μL of cell culture supernatant was added to 45 μL of Quanti-Blue for the colorimetric reaction. The group without tested compound had the highest absorbance at 620 nm, and the group without IL-17AA had the lowest absorbance at 620 nm.
as §1
(§4) Experimental results were analyzed using XLfit (IDBS) for 4-parameter nonlinear fitting analysis to provide the IC50 value for each tested compound (Table 1).

[2] = tested on: IL-17AF-induced IL-17 signaling pathway; assay: Inhibition of IL-17AF-induced IL-17 signaling pathway; format: cell-based; settings: Homo sapiens; IL-17AF used instead of IL-17AA; read-out: IC50 for Inhibiting IL-AF Signaling
Excerpt: as §2, §3, §1, §4
Example 44. Inhibition of IL-17AF-Induced IL-17 Signaling Pathway
The same experimental procedure to Example […] was followed where IL-17AF was used instead of IL-17AA.

| IC50 (IL-17AA and IL-17RA) [nM] | IC50 [1] [nM] | IC50 [2] [nM] | SMILES |
| --- | --- | --- | --- |
| 27 | 13 | 49 | CCC(=O)N[C@@H](c1nncn1CC1CC1)[C@@H](C)c1ccc(NC(=O)[C@@H](NC(=O)c2ccnn2CC)C(C2CC2)C2CC2)c(F)c1 [Compound 1, N-((S)-1,1-dicyclopropyl-3-((4-((1R,2S)-1-(4-(cyclopropylmethyl)-4H-1,2,4-triazol-3-yl)-1-propionamidopropan-2-yl)-2-fluorophenyl)amino)-3-oxopropan-2-yl)-1-ethyl-1H-pyrazole-5-carboxamide] |
| 12 | 50 | 99 | CCn1nccc1C(=O)N[C@H](C(=O)Nc1ccc([C@H](C)[C@@H](NC(C)=O)c2nncn2CC2CC2)cc1F)C(C1CC1)C1CC1 [Compound 2, N-((S)-1-((4-((1R,2S)-1-acetamido-1-(4-(cyclopropylmethyl)-4H-1,2,4-triazol-3-yl)propan-2-yl)-2-fluorophenyl)amino)-3,3-dicyclopropyl-1-oxopropan-2-yl)-1-ethyl-1H-pyrazole-5-carboxamide] |
| 7.3 | 4.1 | 25 | CCn1nccc1C(=O)N[C@H](C(=O)Nc1ccc([C@H](C)[C@@H](NC(=O)COC)c2nncn2CC2CC2)cc1F)C(C1CC1)C1CC1 [Compound 3, N-((S)-1,1-dicyclopropyl-3-((4-((1R,2S)-1-(4-(cyclopropylmethyl)-4H-1,2,4-triazol-3-yl)-1-(2-methoxyacetamido)propan-2-yl)-2-fluorophenyl)amino)-3-oxopropan-2-yl)-1-ethyl-1H-pyrazole-5-carboxamide] |
| 10 | 17 | 20 | COCC(=O)N[C@@H](c1nncn1CC1CC1)[C@@H](C)c1ccc(NC(=O)[C@@H](NC(=O)c2ccnn2C(C)C)C(C2CC2)C2CC2)c(F)c1 [Compound 4, N-((S)-1,1-dicyclopropyl-3-((4-((1R,2S)-1-(4-(cyclopropylmethyl)-4H-1,2,4-triazol-3-yl)-1-(2-methoxyacetamido)propan-2-yl)-2-fluorophenyl)amino)-3-oxopropan-2-yl)-1-isopropyl-1H-pyrazole-5-carboxamide] |
| 66 | 146 | 516 | CCn1nccc1C(=O)N[C@H](C(=O)Nc1ccc([C@H](C)[C@@H](NC(=O)COC)c2nncn2C)cc1F)C(C1CC1)C1CC1 [Compound 6, N-((S)-1,1-dicyclopropyl-3-((2-fluoro-4-((1R,2S)-1-(2-methoxyacetamido)-1-(4-methyl-4H-1,2,4-triazol-3-yl)propan-2-yl)phenyl)amino)-3-oxopropan-2-yl)-1-ethyl-1H-pyrazole-5-carboxamide] |
| 5.2 | 3.9 | 8.9 | COCC(=O)N[C@@H](c1nncn1CC1CC1)[C@@H](C)c1ccc(NC(=O)[C@@H](NC(=O)C(F)(F)c2ccc(OC)nc2)C(C2CC2)C2CC2)c(F)c1 [Compound 7, (S)-3,3-dicyclopropyl-N-(4-((1R,2S)-1-(4-(cyclopropylmethyl)-4H-1,2,4-triazol-3-yl)-1-(2-methoxyacetamido)propan-2-yl)-2-fluorophenyl)-2-(2,2-difluoro-2-(6-methoxypyridin-3-yl)acetamido)propanamide] |
| 13 | 35 | 73 | COCC(=O)N[C@@H](c1nncn1CC1CC1)[C@@H](C)c1ccc(NC(=O)[C@@H](NC(=O)COc2cc(C(F)F)on2)C(C2CC2)C2CC2)c(F)c1 [Compound 8] |
| 16 | 31 | 133 | CCn1nccc1C(=O)N[C@H](C(=O)Nc1ccc([C@H](C)[C@@H](NC(=O)COC)c2nncn2CC2CCOCC2)cc1F)C(C1CC1)C1CC1 [Compound 9, N-((S)-1,1-dicyclopropyl-3-((2-fluoro-4-((1R,2S)-1-(2-methoxyacetamido)-1-(4-((tetrahydro-2H-pyran-4-yl)methyl)-4H-1,2,4-triazol-3-yl)propan-2-yl)phenyl)amino)-3-oxopropan-2-yl)-1-ethyl-1H-pyrazole-5-carboxamide] |
| 109 | 277 | 1040 | COCC(=O)N[C@@H](c1nncn1CC1CC1)[C@@H](C)c1ccc(NC(=O)[C@@H](NC(=O)COCC2(C(F)F)COC2)C(C2CC2)C2CC2)c(F)c1 [Compound 10, (S)-3,3-dicyclopropyl-N-(4-((1R,2S)-1-(4-(cyclopropylmethyl)-4H-1,2,4-triazol-3-yl)-1-(2-methoxyacetamido)propan-2-yl)-2-fluorophenyl)-2-(2-((3-(difluoromethyl)oxetan-3-yl)methoxy)acetamido)propanamide] |
| 13 | 44 | 92 | COCC(=O)N[C@@H](c1nncn1CC1CC1)[C@@H](C)c1ccc(NC(=O)[C@@H](NC(=O)C2(F)CC2)C(C2CC2)C2CC2)c(F)c1 [Compound 11, N-((S)-1,1-dicyclopropyl-3-((4-((1R,2S)-1-(4-(cyclopropylmethyl)-4H-1,2,4-triazol-3-yl)-1-(2-methoxyacetamido)propan-2-yl)-2-fluorophenyl)amino)-3-oxopropan-2-yl)-1-fluorocyclopropane-1-carboxamide] |
| 49 | 91 | 320 | CCn1nccc1C(=O)N[C@H](C(=O)Nc1ccc([C@H](C)[C@@H](NC(=O)COC)c2nncn2C2CC2)cc1F)C(C1CC1)C1CC1 [Compound 12, N-((S)-1,1-dicyclopropyl-3-((4-((1R,2S)-1-(4-cyclopropyl-4H-1,2,4-triazol-3-yl)-1-(2-methoxyacetamido)propan-2-yl)-2-fluorophenyl)amino)-3-oxopropan-2-yl)-1-ethyl-1H-pyrazole-5-carboxamide] |
| 40 | 67 | 216 | COCC(=O)N[C@@H](c1nncn1CC1CC1)[C@@H](C)c1ccc(NC(=O)[C@@H](NC(=O)COc2cc(C(F)F)ccn2)C(C2CC2)C2CC2)c(F)c1 [Compound 13, (S)-3,3-dicyclopropyl-N-(4-((1R,2S)-1-(4-(cyclopropylmethyl)-4H-1,2,4-triazol-3-yl)-1-(2-methoxyacetamido)propan-2-yl)-2-fluorophenyl)-2-(2-((4-(difluoromethyl)pyridin-2-yl)oxy)acetamido)propanamide] |
| 2.9 | 2.3 | 9 | CCc1nonc1C(=O)N[C@H](C(=O)Nc1ccc([C@H](C)[C@@H](NC(=O)COC)c2nncn2CC2CC2)cc1F)C(C1CC1)C1CC1 [Compound 14, N-((S)-1,1-dicyclopropyl-3-((4-((1R,2S)-1-(4-(cyclopropylmethyl)-4H-1,2,4-triazol-3-yl)-1-(2-methoxyacetamido)propan-2-yl)-2-fluorophenyl)amino)-3-oxopropan-2-yl)-4-ethyl-1,2,5-oxadiazole-3-carboxamide] |
| 172 | 1120 | 2130 | COCC(=O)N[C@@H](c1nncn1CC1CC1)[C@@H](C)c1ccc(NC(=O)[C@@H](NC(=O)COCC2CC2)C(C2CC2)C2CC2)c(F)c1 [Compound 15, (S)-3,3-dicyclopropyl-2-(2-(cyclopropylmethoxy)acetamido)-N-(4-((1R,2S)-1-(4-(cyclopropylmethyl)-4H-1,2,4-triazol-3-yl)-1-(2-methoxyacetamido)propan-2-yl)-2-fluorophenyl)propanamide] |

— US20260083708A1, “IL-17 MODULATORS AND USES THEREOF” (NNOCARE PHARMA INC., priority 2024, published 2026)
